SMILES strings stand for the structures.

In one assay the target is T1, Human NHE-1 (Homo sapiens, UniProt P19634).
T1 construct: expressed in transfected cells; host or cells: CCL39-derived PS120 cells (PS120/NHE-1)
Briefly: Inhibitory effect on NHE-1 in PS120/NHE-1 cells (recovery from intracellular acidosis, BCECF fluorescence). The format is cell-based. The note with it: human NHE-1 expressed PS120 cells; concentration at which recovery from intracellular acidosis was 50% inhibited. The method, then: The benzothiophen-2-carbonylguanidine derivatives of the present invention were examined for NHE-1 inhibitory effect in cells according to the following procedure.
Human NHE-1 was expressed in CCL39-derived PS120 cells. These human NHE-1 expressed cells were cultured in DMEM (Dulbecco's modified Eagle's medium) supplemented with 10% fetal bovine serum, 1% penicillin/streptomycin (100× solution), 1% L-glutamine (200 mM aqueous solution). The PS120/NHE-1 cells grown in 100 mm dishes were treated with trypsin at 80-90% confluency, followed by washing with PBS (phosphate buffer saline) once, and then once with an Na-free buffer (138.2 mM Choline chloride, 4.9 mM KCl, […]. 2H2O, 1.2 mM MgSO4.7H2O, 1.2 mM KH2PO4, 15 mM D-glucose, 20 mM HEPES, at pH 7.4). After centrifugation, the pellet was suspended in an Na-free buffer containing 20 mM NH4Cl and 10 μM BCECF-AM [2′,7′-bis(2-carboxyethyl)-5,6-carboxy-fluorescein acetoxymethyl ester] and incubated at 37° C. for 30 min in a CO2 incubator. After being harvested by centrifugation, the PS120/NHE-1 cells were washed once with an Na-free buffer to remove both NH4Cl and extracellular BCECF-AM, suspended at a density of 2.5×10^4 cells/10 μl and stored at 4° C. in a dark room until reuse. In each well of 96-well microplates, 180 μl of HBS (137 mM NaCl, 4.9 mM KCl, 1.5 mM CaCl2. 2H2O, 1.2 mM MgSO4.7H2O, 1.2 mM KH2PO4, 15 mM D-glucose, 20 mM HEPES, at pH 7.4) and 10 μl of DMSO or 10 μl of a solution of the compound (0.03˜10 μM) of the present invention in DMSO were placed and well mixed, after which 10 μl aliquots of the intracellular acidosis-induced PS120/NHE-1 cells were added thereto. 4 min after the cell addition, fluorescence (excitation: 485/444 nm, emission: 535 nm) was measured in the GEMINI-XS Microplate Spectrofluorometer (Molecular Devices). The fluorescence measured was converted into pH values using a high-K^+/nigericin technique. The cells in which intracellular acidosis was induced with NH4Cl prepulses, were recovered to normal pH values through the operation of NHE-1. The inhibitory effect of the compound against NHE-1 was evaluated as concentrations at which the recovery from the intracellular acidosis to a normal state was 50% inhibited (IC50 values), with cariporide used as a control.

The test system of assay [1] is isolated ischemic rat heart. Briefly: Cardioprotective effect in isolated ischemic rat heart model (Langendorff). The following applies: 10 μM, 30 min global ischemia, 30 min reperfusion. On the procedure:
Male rats (300 450 g, the Korea Research Institute of Chemical Technology, Experimental Animal Lab) were anesthetized by intraperitoneal injection with sodium pentobarbital at a dose of 100 mg/kg and were intravenously administered with heparine at a dose of 1000 U/kg, followed by the excision of the heart. In detail, a tracheotomy was performed and a tracheal cannula (PE 240) was inserted into the trachea for subsequent artificial ventilation with room air using a rodent ventilator. […] A catheter tip manometer connected to a latex balloon filled with a mixture of ethanol and distilled water (1:1 v/v) was inserted via an incision in the left atrium into the left ventricle, and the intraventricular pressure thereof transmitted to the latex balloon was measured isovolumetrically with a transducer and recorded on a recording system (Linearcorder mark 8 WR 3500) with the aid of an amplifier (Plugsys bridge amplifier). After stabilizing the heart for 15 min, the balloon volume was adjusted to create a left ventricular end-diastolic pressure (LVEDP) of 5 mmHg during the initial baseline period. The volume of the balloon was maintained until the end of the experiment. Baseline heart contraction function, spontaneous heart rate (HR) and coronary flow (CF) were determined from the left ventricular contraction interval. The left ventricular developed pressure (LVDP), which is regarded as an index of contractile function of the isolated heart, was calculated by subtracting left ventricular end-diastolic pressure (LVEDP) from left ventricular peak systolic pressure (LVSP). In contrast to the heart in the body, the Langendorff heart cannot be measured for cardiac output and thus, RPP (rate-pressure product), which is an important indirect indicator for cardiac performance, was calculated by multiplying heart rate (HR) by LVDP. Throughout the experiment, the temperature of the heart was maintained constant by […] in a 37° C. physiological solution to which 95% O2/5% CO2 was continuously supplied. The heart thus stabilized was perfursed for 10 min with a solution of the compounds of the invention or control drugs in DMSO (dimethylsulfoxide) diluted with HBS (final DMSO conc. 0.04%), or with the solvent only (a negative control; 0.04% DMSO) and then measured again for contractile function, heart rate (HR) and coronary flow (CF). The supply of perfusates was completely stopped for 30 min in order to induce global ischemia in the heart, followed by reperfusion for 30 min. The indices (LVDP, HR, LVEDP, and CF) were measured again. After the reperfusion, the total level of lactate dehydrogenase (LDH) in the reperfusates was measured using a kit and taken as an index of ischemic myocardial injury. A negative control group was treated with the solvent only while cariporide was used as a positive control.

In assay [2] the test system is in vivo ischemic rat heart model. Description: Cardioprotective effect on in vivo ischemic rat heart model (coronary occlusion/reperfusion, infarct size). The following applies: 45 min occlusion, 90 min reperfusion. The method, then: The cardioprotective effect of the benzothiophen-2-carbonylguanidine derivatives according to the present invention in in vivo ischemic hearts was judged with regard to their antischemic effects (myocardiac infarction reduction) on rats as follows.
Each male rat (300˜450 g, the Korea Research Institute of Chemical Technology, Experimental Animal Lab) was anesthetized by intraperitoneal injection with sodium pentobarbital at a dose of 75 mg/kg. Tracheotomy was performed and a tube was inserted into the trachea for subsequent artificial ventilation with a stroke volume of 10 ml/kg and a respiratory rate of 60 breaths/min. The femoral vein and the femoral artery were cannulated for the administration of the compounds and for the measurement of blood pressures, respectively. Meanwhile, the body temperature of the rats, an important factor to influence experimental results in the ischemic myocardiac injury model, was maintained constant at 37° C. using a homeothermic blanket control unit, with a body temperature-monitoring probe inserted into the rectum. Subsequently, rats were continuously measured for mean arterial blood pressure and heart rate HR throughout the experimental time period using a Statham P23XL pressure transducer (Grass Ins., Mass., USA) and an ECG/RATE Coupler (Hugo Sachs Electronic, Germany), respectively, with all continuous changes thereof recorded by Graphtec Linearcorder WR 3310 (Hugo Sachs Electronic).
The left coronary artery was occluded according to Selye H.'s method. In detail, after the chest of each rat was partially opened by left thoracotomy, the middle finger of the left hand was pressed against the right side of the chest of the rat to thrust out the heart which was then slightly fixed with the forefinger and the thumb of the same hand. Then, immediately after the left anterior descending coronary artery (LAD) was sutured with a 5-0 silk ligature, the heart was repositioned back in the thoracic cavity with both ends of the suture positioned outside. The ends of the suture were threaded through a PE tube (PE100, 2.5 cm) and allowed to stand for 20 min for stabilization. Through the cannula inserted into the femoral vein, a vehicle or the compounds of the invention were administered and 30 min was needed for sufficient effects of the administered compounds. Cariporide was used as a control. The ends of the suture threaded through the PE tube were pulled taut with hemostatic forceps to vertically press the PE tube against the coronary artery. After occlusion for 45 min, the hemostatic forceps were removed and reperfusion was conducted for 90 min.
The coronary artery was reoccluded in the same manner as described above, followed by the intravenous injection of 2 ml of 1% Evans blue. The intravenous injection of an excess of pentobarbital killed the rats, from which the hearts were then excised. The left ventricle was removed alone from the isolated heart and transected from the cardiac apex into 5 or 6 slices. Each slice was weighed. The image of each of the heart slices was captured using a Hi-scope, a compact vision system, and analyzed for blue-stained normal areas and non-stained areas with an image analyzing program (Image Pro Plus). In each slice, the area at risk (AAR) was calculated by multiplying the ratio of the non-stained area to the total area of the slice with the weight of the slice. Sum of the individual area at risk (AAR) for each slice was divided by the total weight of the left ventricle to obtain AAR (%) according to the following mathmatical formula 1.
Separately, the heat slices were incubated in 1%. 2,3,5-triphenyltetrazolium chloride (TTC) phosphate buffer (pH 7.4), 37° C., for 15 min and fixed in 10% formalin for 20˜24 hours. In the normal area of the tissue, 2,3,5-triphenyltetrazolium chloride was reduced by the myocardial dehydrogenase in the presence of the cofactor NADH to form formazan dye, which appeared as a brick-red color. […]

T1 sequence (P19634 whole entry): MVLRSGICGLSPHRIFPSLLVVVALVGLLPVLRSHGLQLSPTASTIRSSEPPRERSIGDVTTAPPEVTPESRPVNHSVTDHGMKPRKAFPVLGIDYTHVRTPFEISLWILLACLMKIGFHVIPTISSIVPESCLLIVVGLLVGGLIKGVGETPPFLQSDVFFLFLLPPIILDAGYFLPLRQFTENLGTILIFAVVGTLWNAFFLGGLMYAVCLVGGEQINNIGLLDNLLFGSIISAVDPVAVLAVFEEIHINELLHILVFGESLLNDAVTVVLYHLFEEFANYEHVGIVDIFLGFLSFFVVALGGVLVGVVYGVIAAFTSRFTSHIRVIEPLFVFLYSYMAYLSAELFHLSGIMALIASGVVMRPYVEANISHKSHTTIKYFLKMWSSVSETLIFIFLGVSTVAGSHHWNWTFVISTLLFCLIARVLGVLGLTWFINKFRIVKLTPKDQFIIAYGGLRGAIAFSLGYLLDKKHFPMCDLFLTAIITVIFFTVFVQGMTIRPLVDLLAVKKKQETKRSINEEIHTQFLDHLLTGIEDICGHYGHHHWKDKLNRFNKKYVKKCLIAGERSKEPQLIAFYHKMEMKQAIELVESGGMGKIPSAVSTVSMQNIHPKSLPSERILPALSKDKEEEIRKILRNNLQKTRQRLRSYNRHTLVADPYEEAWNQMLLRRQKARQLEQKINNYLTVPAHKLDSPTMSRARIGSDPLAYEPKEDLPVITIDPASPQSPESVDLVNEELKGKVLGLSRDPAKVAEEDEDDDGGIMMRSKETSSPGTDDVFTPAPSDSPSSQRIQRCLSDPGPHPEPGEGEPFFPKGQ

In the case of `CC(C)c1ccc(C(=O)NC(=N)N)cc1S(C)(=O)=O` [Cariporide, cariporide, reference compound], on Human NHE-1, it took 680 nM to reach half-maximal inhibition (IC50). In addition, in assay [1], the “LDH (free LDH level upon reperfusion)” value is 19.3 u/g, the “LVEDP (left ventricular end-diastolic pressure)” value is recorded as 22.4 mmHg and the “RPP (rate-pressure product (LVDP × HR) % relative to the value before ischemia induction)” value was 69.8%. Further, in assay [2] (0.1 mg/kg intravenous), the “Myocardiac infarction rate (IS/AAR, %)” value is 40.5%. Besides, the “Myocardiac infarction rate (IS/AAR, %)” value in assay [2] (0.3 mg/kg intravenous) came out at 37.9%.
`CS(=O)(=O)O.NC(N)=NC(=O)c1cc2c(C(F)(F)F)cccc2s1` [Example 43, (4-Trifluoromethylbenzothiophene-2-Carbonyl)Guanidine Methanesulfonate] yielded an IC50 at Human NHE-1 of 400 nM. In assay [1], the “LDH (free LDH level upon reperfusion)” value turned out to be 5.2 u/g, the “LVEDP (left ventricular end-diastolic pressure)” value is given as 5.8 mmHg and the “RPP (rate-pressure product (LVDP × HR) % relative to the value before ischemia induction)” value stood at 80.6%. Moreover, the “Myocardiac infarction rate (IS/AAR, %)” value in assay [2] (0.1 mg/kg intravenous) amounted to 44.8%.
On the same counts, the results for `CCc1cccc2sc(C(=O)N=C(N)N)cc12.CS(=O)(=O)O` [Example 37, (4-Ethylbenzothiophene-2-Carbonyl)Guanidine Methanesulfonate] are 270 nM, 7.1 u/g, 37.7 mmHg, 43.4% and 51.6%.

A word on the IC50: it is the concentration at which inhibition is half-maximal. The low end stands for inhibition by little substance, the high end for a need for much substance.

Values taken from patent US8143307B2, “Benzothiophen-2-carbonylguanidine derivatives, preparation thereof, and pharmaceutical composition containing the same” (Korea Research Institute of Chemical Technology, priority 2004, dated 2012).
